Like-named read-outs stand apart in the source and are kept apart here.
What was measured:
adult schistosome worms = test: Schistosome mobility assay ex vivo; type: cell-based, S. mansoni
Description: Adult schistosomes were harvested from the mesenteric vasculature of female Swiss Webster mice previously infected (~49 days earlier) with S. mansoni cercariae (NMRI strain) by the Schistosomiasis Resource Center at the Biomedical Research Institute (BRI, Rockville, MD). Harvested schistosomes were washed in RPMI 1640 supplemented with 5% heat inactivated FBS (Gibco), HEPES (25 mM) and penicillin-streptomycin (100 units/mL). After isolation, worms were incubated overnight (37°C/5% CO2) in vented petri dishes (100x25 mm). Movement assays were performed using male and female worms in six well dishes (~5 individual worms/3ml media per well). Video recordings of worm motility (4 frames/sec) were captured using a Zeiss Discovery v20 stereomicroscope coupled to a QiCAM 12-bit cooled color CCD camera controlled by Metamorph imaging software.

Sm.TRPMPZQ [1] = molecular target: T1, Sm.TRPMPZQ (Schistosoma mansoni, UniProt A0A5K4F0X5); test: Single channel recording, inside-out patch, HEK293 stably expressing Sm.TRPMPZQ; type: biochemical; conditions: for mean slope single-channel conductance: agonist 10 μM, Ca2+-free, inside-out, mean ± SD
T1 sequence (A0A5K4F0X5 entry or part of it): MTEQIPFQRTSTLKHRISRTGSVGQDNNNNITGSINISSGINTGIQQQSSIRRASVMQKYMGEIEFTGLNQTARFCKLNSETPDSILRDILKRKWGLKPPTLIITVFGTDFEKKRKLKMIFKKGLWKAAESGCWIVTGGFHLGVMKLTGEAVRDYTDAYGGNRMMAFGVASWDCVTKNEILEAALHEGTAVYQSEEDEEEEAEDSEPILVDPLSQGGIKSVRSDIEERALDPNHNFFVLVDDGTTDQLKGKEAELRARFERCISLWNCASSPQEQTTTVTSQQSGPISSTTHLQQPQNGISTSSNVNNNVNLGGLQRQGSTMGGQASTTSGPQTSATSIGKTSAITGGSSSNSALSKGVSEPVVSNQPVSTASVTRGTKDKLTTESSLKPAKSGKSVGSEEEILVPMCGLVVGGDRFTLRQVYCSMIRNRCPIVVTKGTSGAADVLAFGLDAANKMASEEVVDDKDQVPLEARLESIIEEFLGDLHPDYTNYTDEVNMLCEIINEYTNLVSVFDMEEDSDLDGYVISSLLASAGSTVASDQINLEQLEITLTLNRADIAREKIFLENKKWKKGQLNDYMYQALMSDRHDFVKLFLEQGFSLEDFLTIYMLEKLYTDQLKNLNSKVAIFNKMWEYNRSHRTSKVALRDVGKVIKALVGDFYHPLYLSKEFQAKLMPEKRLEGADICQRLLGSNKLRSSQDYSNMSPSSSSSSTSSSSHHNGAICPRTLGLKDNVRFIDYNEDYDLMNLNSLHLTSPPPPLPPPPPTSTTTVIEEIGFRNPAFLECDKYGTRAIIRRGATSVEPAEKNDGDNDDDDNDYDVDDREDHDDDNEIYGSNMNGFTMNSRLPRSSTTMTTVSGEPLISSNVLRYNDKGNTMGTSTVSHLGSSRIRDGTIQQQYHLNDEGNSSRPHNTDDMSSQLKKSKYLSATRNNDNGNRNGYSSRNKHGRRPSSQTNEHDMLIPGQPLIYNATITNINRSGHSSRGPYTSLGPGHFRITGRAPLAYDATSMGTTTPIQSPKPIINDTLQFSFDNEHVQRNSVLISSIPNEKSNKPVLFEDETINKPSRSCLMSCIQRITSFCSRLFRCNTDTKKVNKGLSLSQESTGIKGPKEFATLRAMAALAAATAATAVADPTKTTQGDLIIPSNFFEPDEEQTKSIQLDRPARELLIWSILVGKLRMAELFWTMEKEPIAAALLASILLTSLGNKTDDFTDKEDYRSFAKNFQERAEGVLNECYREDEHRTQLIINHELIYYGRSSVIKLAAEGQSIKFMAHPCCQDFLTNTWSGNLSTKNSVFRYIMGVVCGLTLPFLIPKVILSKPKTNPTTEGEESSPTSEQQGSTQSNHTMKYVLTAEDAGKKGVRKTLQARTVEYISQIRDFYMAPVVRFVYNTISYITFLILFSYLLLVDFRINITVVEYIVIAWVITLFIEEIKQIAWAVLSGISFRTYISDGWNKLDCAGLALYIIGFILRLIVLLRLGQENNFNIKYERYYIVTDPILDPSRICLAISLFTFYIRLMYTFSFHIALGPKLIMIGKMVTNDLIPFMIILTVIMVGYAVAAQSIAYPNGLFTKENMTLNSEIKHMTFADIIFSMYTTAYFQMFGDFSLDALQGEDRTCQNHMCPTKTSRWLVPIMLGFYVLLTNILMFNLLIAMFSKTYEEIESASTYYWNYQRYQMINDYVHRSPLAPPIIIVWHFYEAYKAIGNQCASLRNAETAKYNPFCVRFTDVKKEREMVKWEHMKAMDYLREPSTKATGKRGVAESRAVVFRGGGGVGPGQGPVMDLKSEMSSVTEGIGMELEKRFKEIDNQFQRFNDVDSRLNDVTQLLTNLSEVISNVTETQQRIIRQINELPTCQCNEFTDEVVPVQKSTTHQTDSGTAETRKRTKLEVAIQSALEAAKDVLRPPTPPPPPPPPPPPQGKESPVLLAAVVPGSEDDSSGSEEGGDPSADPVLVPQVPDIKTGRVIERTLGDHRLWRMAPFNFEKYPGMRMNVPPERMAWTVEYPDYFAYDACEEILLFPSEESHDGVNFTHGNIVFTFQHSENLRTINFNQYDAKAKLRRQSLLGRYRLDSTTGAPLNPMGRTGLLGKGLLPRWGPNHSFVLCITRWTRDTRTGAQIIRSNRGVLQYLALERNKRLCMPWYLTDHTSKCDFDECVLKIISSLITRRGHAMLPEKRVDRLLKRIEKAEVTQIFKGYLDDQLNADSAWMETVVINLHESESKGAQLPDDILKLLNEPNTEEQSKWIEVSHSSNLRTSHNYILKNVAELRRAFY
Description: For electrophysiological analysis, a HEK293 cell line stably expressing Sm.TRPMPZQ [7] was generated using the Flp-In T-REx system (K650001, Thermofisher Scientific, Carlsbad, CA). Flp-In T-REx HEK293 cells were cultured in Dulbecco’s modified Eagle’s medium supplemented with 10% fetal bovine serum, penicillin (100 units/ml), streptomycin (100 μg/ml), L-glutamine (290 μg/ml), blasticidin (10 μg/ml), and hydromycin B (100 μg/ml). HEK293 cells were plated onto glass coverslips and Sm.TRPMPZQ expression induced by addition of tetracycline (2 μg/ml) to the media 24–48 hours before recording. Prior to recording, coverslips were secured within a recording chamber of an Olympus BX51WI upright microscope. Cells were bathed in a solution containing 145 mM KCl, 10 mM HEPES, 1 mM EGTA (pH 7.2, 310–315 mOsm/kg with sucrose). The pipette solution contained 140 mM LiCl, 10 mM HEPES, 1 mM EGTA (pH 7.4, 280–285 mOsm/kg with sucrose). Patch pipettes were made of borosilicate glass (BF150-110-10, Sutter Instrument, Novato, CA) pulled on a vertical puller (Narishige, Amityville, NY, Model PC-10) with resistances 8–10 MΩ. […] Signals were filtered with an 8-pole Bessel low pass filter at 1 kHz, and sampled at 20 kHz. Open probability (Popen) was assessed in single channel search mode using Clampfit 10 software. All recordings were done at room temperature. Data represent mean±standard error for ≥3 independent experiments.

Sm.TRPMPZQ[R1514A] = test: Ca2+ signal in cells expressing the binding pocket mutant; type: cell-based, Schistosoma mansoni
schistosomes = tested on: schistosomes; design: method as in PMID 27128493; conditions: read-out: IC50 in phenotypic assays; cited from earlier work
[2] = tested on: untransfected HEK293 cells; test: Counterscreen, antagonist mode, Ca2+ signal in untransfected HEK cells; type: cell-based; conditions: counterscreen titration; for EC50: Homo sapiens, HEK293, unit inferred, read-out: HEK ANT Final EC50
Description: HEK cells were transfected with cDNA (400μg/ml DNA) encoding Sm.TRPMPZQ using a Maxcyte STX electroporation system and incubated overnight at 37°C. This system is uniquely capabable of large scale transfections providing one batch of cells ready for large scale HTS [30]. Briefly, the HEK cells were resuspended at 10^8/ml in Maxcyte electroporation buffer. Plasmid DNA was added to the cells in buffer to achieve a concentration of 400 μg/ml from a stock of 5mg/ml (in TE buffer). This mixture was loaded into the appropriate cassette, inserted into the machine, and cells electroporated. Cells were then frozen to provide a single supply of transfected cells for all subsequent assays. On the day of the assays, cells were thawed in a 37°C waterbath, and resuspended in DMEM + 10% FBS and counted. The cells were pelleted by centrifugation at 170xg for 5 minutes. The media was aspirated, and the remaining pellet was resuspended in 1x HBSS with 20 mM HEPES and 1% DMSO to achieve 1.33x10^6cells/ml. This cell suspension was then dispensed at 3 μl/well to the 1536 well plates (Greiner Bio One part 789072) at a density of 4,000 cells/well. Measurements of fluorescence intensity (λex = 470 nm, λem = 535 nm) were made using a FLIPR (Molecular Devices FLIPR Tetra). A read of basal fluorescence values was made (5s) prior to addition of compounds or controls (30 nl). In both ‘agonist’ and ‘antagonist mode’, the total assay volume was 6μl (1% DMSO). […] Ligand performance was categorized using an algorithm based on the activity of the entire dataset to define a ‘hit-cutoff’ parameter for both agonist-mode and antagonist-mode screening. Any compound with greater percent activation than this cutoff was assigned as ‘active’ prior to titration and counter-screening. Titration assays were executed using the same reagents, protocols and detection systems, done as 10-point concentration-response curves, performed in triplicate. Counter-screening was performed using untransfected HEK293 cells for comparison with results testing the same compounds effect on cells expressing Sm.TRPMPZQ, with ATP used as the positive control. For each compound, activity was plotted against compound concentration and data were fitted with a sigmoidal function. In order to be considered a hit at this stage a compound must achieve a EC50<5 μM for agonists and IC50 <5 μM for antagonists. All compounds selected for titration were subjected to LC-MS analysis to confirm mass and sample purity. ChemAxon (https://www.chemaxon.com) academic licensing was provided for the use of Instant JChem (ver. 15.10.12.0) to perform compound mining of the libraries utilized in this effort.

Sm.TRPMPZQ [3] = molecular target: T1, Sm.TRPMPZQ; conditions: confocal Ca2+ imaging; cited from earlier work

In the case of COc1ccc(-c2nnc3ccc(-c4cccc(C(C)C)c4)cn23)cc1OC [AG1, 3-(3,4-Dimethoxyphenyl)-6-(3-propan-2-ylphenyl)-[1,2,4]triazolo[4,3-a]pyridine], the “effect on adult worms ex vivo” value (adult schistosome worms; agonist alone) is reported as “evoked a sustained contraction”, the “mean slope single-channel conductance” value (Sm.TRPMPZQ [1]) is reported as 61 ± 4 pS and the “Ca2+ elevation at binding site mutant” value (Sm.TRPMPZQ[R1514A]) is reported as “ablated AG1 activity”. For the same compound, the IC50 (schistosomes) was about 1.6 µM, the EC50 ([2]; S2 Table) was 10.3 µM and the “HEK ANT Averaged Max % Response” value ([2]; S2 Table) was 64.2957%.
In the case of O=C(C1CCCCC1)N1CC(=O)N2CCc3ccccc3C2C1 (centres unmarked) [PZQ, praziquantel, reference compound], the “ΔF/F, amplitude of Ca2+ transient” value (Sm.TRPMPZQ [3]) is listed as 12.3±2.1, the “mean slope single-channel conductance” value (Sm.TRPMPZQ [1]) is listed as 76 ± 8 pS and the “Ca2+ elevation at binding site mutant” value (Sm.TRPMPZQ[R1514A]) is listed as “did not elevate Ca^2+”. The EC50 ([2]; S2 Table) was over 12.4 µM, the “HEK ANT Averaged Max % Response” value ([2]; S2 Table, listed as SR-01000003100-3) was 20.9575% and the “HEK ANT Averaged Max % Response” value ([2]; S2 Table, listed as SR-01000003100-19) was 9.578%.
With Cc1onc(-c2ccccc2)c1C(=O)N1CCN(C2c3ccccc3-c3ccccc32)CC1 [ANT1, 1-(9H-fluoren-9-yl)-4-(5-methyl-3-phenyl-1,2-oxazole-4-carbonyl)piperazine] the “recovery of worms in continued presence of PZQ” value (adult schistosome worms; 50μM, PZQ 250 nM, 24 hours, compared to PZQ alone) was “enhanced recovery”, the “effect on worm motility” value (adult schistosome worms; applied alone to intact worms) was “did not change worm motility” and the “effect on single channel open probability (Popen)” value (Sm.TRPMPZQ [1]; 50 μM, channels activated by PZQ or AG1 (10 μM)) was “decreased Popen”. The EC50 ([2]; S3 Table) was over 12.4 µM and the “HEK ANT Averaged Max % Response” value ([2]; S3 Table) was 43.1011%.
